# Experimental data from patent US10202361B2, “Pyridazinones as herbicides” (E I DU PONT DE NEMOURS AND COMPANY, priority 2014, dated 2019).
# Assays:
# Type in all cases: in vivo
# [1] = system: poinsettia, wild (wild poinsettia, Euphorbia heterophylla); experiment: Test E pre-/postemergence greenhouse herbicide test; conditions: scale 0 to 100
# [2] = system: surinam grass (Brachiaria decumbens); experiment: as above; conditions: Preemergence, scale 0 to 100
# [3] = system: crabgrass, large (large crabgrass Digitaria sanguinalis); experiment: as above; conditions: Preemergence, scale 0 to 100
# [4] = system: goosegrass (Eleusine indica); experiment: as above; conditions: Preemergence, scale 0 to 100
# [5] = system: arrowleaf sida (Sida rhombifolia); experiment: as above; conditions: scale 0 to 100
# Outline: (§1)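 Pre- and postemergence greenhouse spray; compound in non-phytotoxic solvent + surfactant. Pre: silt loam soil at planting. Post: 1- to 4-leaf plants, 2 to 18 cm, peat-based medium. Visual score 0–100 vs untreated controls at 14 to 21 d.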
# [6] = system: barnyardgrass (Echinochloa crus-galli); experiment: as above; conditions: scale 0 to 100
# Outline: as §1
# [7] = system: dayflower, VA (Virginia dayflower, Commelina virginica); experiment: as above; conditions: scale 0 to 100
# Outline: as §1
# [8] = system: field bindweed (Convolvulus arvensis); experiment: as above; conditions: scale 0 to 100
# Outline: as §1
# [9] = system: smartweed (ladysthumb smartweed, Polygonum persicaria); experiment: as above; conditions: scale 0 to 100
# Outline: as §1
# [10] = system: nutsedge, yellow (yellow nutsedge, Cyperus esculentus); experiment: as above; conditions: Preemergence, scale 0 to 100
# [11] = system: waterhemp_RES1 (ALS & Triazine resistant common waterhemp, Amaranthus rudis); experiment: Test E postemergence greenhouse herbicide test; conditions: scale 0 to 100
# Experimental: (§2) At the same time, plants from these crop and weed species and also waterhemp_RES1, (ALS & Triazine resistant common waterhemp, Amaranthus rudis), and waterhemp_RES2, (ALS & HPPD resistant common waterhemp, Amaranthus rudis) were planted in pots containing Redi-Earth® planting medium (Scotts Company, 14111 Scottslawn Road, Marysville, Ohio 43041) comprising spaghnum peat moss, vermiculite, wetting agent and starter nutrients were treated with postemergence applications of test chemicals formulated in the same manner. Plants ranged in height from 2 to 18 cm for postemergence treatments (1- to 4-leaf stage). Treated plants and controls were maintained in a greenhouse for 14 to 21 d, after which time all species were compared to controls and visually evaluated. Plant response ratings, summarized in Table E, are based on a scale of 0 to 100 where 0 is no effect and 100 is complete control. A dash (-) response means no test result.
# [12] = system: waterhemp_RES2 (ALS & HPPD resistant common waterhemp, Amaranthus rudis); experiment: Test E postemergence greenhouse herbicide test; conditions: scale 0 to 100
# Experimental: as §2
compound,measurement,setting,value
"COc1cc(=O)n(-c2ccc(C(F)(F)F)cc2)nc1Cc1ccnc(C(F)(F)F)c1 [Compound 16, 5-methoxy-2-[4-(trifluoromethyl)phenyl]-6-[[2-(trifluoromethyl)-4-pyridinyl]methyl]-3(2H)-pyridazinone]","Plant response rating: Poinsettia, Wild","[1]; Postemergence, 62 g ai/ha",60
same,"Plant response rating: Poinsettia, Wild","[1]; Postemergence, 125 g ai/ha",70
same,"Plant response rating: Poinsettia, Wild","[1]; Postemergence, 250 g ai/ha",75
same,"Plant response rating: Poinsettia, Wild","[1]; Preemergence, 62 g ai/ha",35
same,"Plant response rating: Poinsettia, Wild","[1]; Preemergence, 125 g ai/ha",35
same,"Plant response rating: Poinsettia, Wild","[1]; Preemergence, 250 g ai/ha",65
same,Plant response rating: Surinam Grass,[2]; 62 g ai/ha,25
same,Plant response rating: Surinam Grass,[2]; 125 g ai/ha,40
same,Plant response rating: Surinam Grass,[2]; 250 g ai/ha,98
same,"Plant response rating: Crabgrass, Large",[3]; 62 g ai/ha,100
same,"Plant response rating: Crabgrass, Large",[3]; 125 g ai/ha,100
same,"Plant response rating: Crabgrass, Large",[3]; 250 g ai/ha,100
same,Plant response rating: Goosegrass,[4]; 62 g ai/ha,5
same,Plant response rating: Goosegrass,[4]; 125 g ai/ha,20
same,Plant response rating: Goosegrass,[4]; 250 g ai/ha,50
same,Plant response rating: Arrowleaf Sida,"[5]; Postemergence, 62 g ai/ha",60
same,Plant response rating: Arrowleaf Sida,"[5]; Postemergence, 250 g ai/ha",80
same,Plant response rating: Arrowleaf Sida,"[5]; Preemergence, 62 g ai/ha",0
same,Plant response rating: Arrowleaf Sida,"[5]; Preemergence, 125 g ai/ha",0
same,Plant response rating: Arrowleaf Sida,"[5]; Preemergence, 250 g ai/ha",5
same,Plant response rating: Barnyardgrass,"[6]; Postemergence, 62 g ai/ha",15
same,Plant response rating: Barnyardgrass,"[6]; Postemergence, 125 g ai/ha",30
same,Plant response rating: Barnyardgrass,"[6]; Postemergence, 250 g ai/ha",50
same,Plant response rating: Barnyardgrass,"[6]; Preemergence, 62 g ai/ha",35
same,Plant response rating: Barnyardgrass,"[6]; Preemergence, 125 g ai/ha",50
same,Plant response rating: Barnyardgrass,"[6]; Preemergence, 250 g ai/ha",70
same,"Plant response rating: Dayflower, VA","[7]; Postemergence, 62 g ai/ha",20
same,"Plant response rating: Dayflower, VA","[7]; Postemergence, 125 g ai/ha",60
same,"Plant response rating: Dayflower, VA","[7]; Postemergence, 250 g ai/ha",70
same,"Plant response rating: Dayflower, VA","[7]; Preemergence, 62 g ai/ha",5
same,"Plant response rating: Dayflower, VA","[7]; Preemergence, 125 g ai/ha",20
same,"Plant response rating: Dayflower, VA","[7]; Preemergence, 250 g ai/ha",65
same,Plant response rating: Field Bindweed,"[8]; Postemergence, 62 g ai/ha",50
same,Plant response rating: Field Bindweed,"[8]; Postemergence, 125 g ai/ha",65
same,Plant response rating: Field Bindweed,"[8]; Postemergence, 250 g ai/ha",75
same,Plant response rating: Field Bindweed,"[8]; Preemergence, 62 g ai/ha",5
same,Plant response rating: Field Bindweed,"[8]; Preemergence, 125 g ai/ha",30
same,Plant response rating: Field Bindweed,"[8]; Preemergence, 250 g ai/ha",100
same,Plant response rating: Smartweed,"[9]; Postemergence, 62 g ai/ha",40
same,Plant response rating: Smartweed,"[9]; Postemergence, 125 g ai/ha",70
same,Plant response rating: Smartweed,"[9]; Postemergence, 250 g ai/ha",70
same,Plant response rating: Smartweed,"[9]; Preemergence, 62 g ai/ha",98
same,Plant response rating: Smartweed,"[9]; Preemergence, 125 g ai/ha",98
same,Plant response rating: Smartweed,"[9]; Preemergence, 250 g ai/ha",100
same,"Plant response rating: Nutsedge, Yellow",[10]; 62 g ai/ha,20
same,"Plant response rating: Nutsedge, Yellow",[10]; 125 g ai/ha,20
same,"Plant response rating: Nutsedge, Yellow",[10]; 250 g ai/ha,40
same,Plant response rating: Waterhemp_RES1,[11]; 62 g ai/ha,95
same,Plant response rating: Waterhemp_RES1,[11]; 125 g ai/ha,100
same,Plant response rating: Waterhemp_RES1,[11]; 250 g ai/ha,100
same,Plant response rating: Waterhemp_RES2,[12]; 62 g ai/ha,90
same,Plant response rating: Waterhemp_RES2,[12]; 125 g ai/ha,95
same,Plant response rating: Waterhemp_RES2,[12]; 250 g ai/ha,100
"CCOc1cc(=O)n(-c2ccc(F)cc2)nc1Cc1ccnc(C(F)(F)F)c1 [Compound 25, 5-ethoxy-2-(4-fluorophenyl)-6-[[2-(trifluoromethyl)-4-pyridinyl]methyl]-3 (2H)-pyridazinone]","Plant response rating: Poinsettia, Wild","[1]; Preemergence, 8 g ai/ha",0
same,"Plant response rating: Poinsettia, Wild","[1]; Preemergence, 16 g ai/ha",0
same,"Plant response rating: Poinsettia, Wild","[1]; Preemergence, 31 g ai/ha",0
same,"Plant response rating: Poinsettia, Wild","[1]; Preemergence, 62 g ai/ha",50
same,"Plant response rating: Poinsettia, Wild","[1]; Preemergence, 125 g ai/ha",10
same,Plant response rating: Surinam Grass,[2]; 8 g ai/ha,5
same,Plant response rating: Surinam Grass,[2]; 16 g ai/ha,10
same,Plant response rating: Surinam Grass,[2]; 31 g ai/ha,80
same,Plant response rating: Surinam Grass,[2]; 62 g ai/ha,100
same,Plant response rating: Surinam Grass,[2]; 125 g ai/ha,100
same,"Plant response rating: Crabgrass, Large",[3]; 8 g ai/ha,0
same,"Plant response rating: Crabgrass, Large",[3]; 16 g ai/ha,0
same,"Plant response rating: Crabgrass, Large",[3]; 31 g ai/ha,75
same,"Plant response rating: Crabgrass, Large",[3]; 62 g ai/ha,100
same,"Plant response rating: Crabgrass, Large",[3]; 125 g ai/ha,100
same,Plant response rating: Goosegrass,[4]; 8 g ai/ha,5
same,Plant response rating: Goosegrass,[4]; 16 g ai/ha,5
same,Plant response rating: Goosegrass,[4]; 31 g ai/ha,15
same,Plant response rating: Goosegrass,[4]; 62 g ai/ha,75
same,Plant response rating: Goosegrass,[4]; 125 g ai/ha,98
same,Plant response rating: Arrowleaf Sida,"[5]; Preemergence, 8 g ai/ha",0
same,Plant response rating: Arrowleaf Sida,"[5]; Preemergence, 16 g ai/ha",5
same,Plant response rating: Arrowleaf Sida,"[5]; Preemergence, 31 g ai/ha",5
same,Plant response rating: Arrowleaf Sida,"[5]; Preemergence, 62 g ai/ha",35
same,Plant response rating: Arrowleaf Sida,"[5]; Preemergence, 125 g ai/ha",40
same,Plant response rating: Barnyardgrass,"[6]; Preemergence, 8 g ai/ha",0
same,Plant response rating: Barnyardgrass,"[6]; Preemergence, 16 g ai/ha",5
same,Plant response rating: Barnyardgrass,"[6]; Preemergence, 31 g ai/ha",15
same,Plant response rating: Barnyardgrass,"[6]; Preemergence, 62 g ai/ha",35
same,Plant response rating: Barnyardgrass,"[6]; Preemergence, 125 g ai/ha",60
same,"Plant response rating: Dayflower, VA","[7]; Preemergence, 8 g ai/ha",0
same,"Plant response rating: Dayflower, VA","[7]; Preemergence, 16 g ai/ha",0
same,"Plant response rating: Dayflower, VA","[7]; Preemergence, 31 g ai/ha",15
same,"Plant response rating: Dayflower, VA","[7]; Preemergence, 62 g ai/ha",20
same,"Plant response rating: Dayflower, VA","[7]; Preemergence, 125 g ai/ha",70
same,Plant response rating: Field Bindweed,"[8]; Preemergence, 8 g ai/ha",0
same,Plant response rating: Field Bindweed,"[8]; Preemergence, 16 g ai/ha",0
same,Plant response rating: Field Bindweed,"[8]; Preemergence, 31 g ai/ha",0
same,Plant response rating: Field Bindweed,"[8]; Preemergence, 62 g ai/ha",5
same,Plant response rating: Field Bindweed,"[8]; Preemergence, 125 g ai/ha",100
same,"Plant response rating: Nutsedge, Yellow",[10]; 8 g ai/ha,0
same,"Plant response rating: Nutsedge, Yellow",[10]; 16 g ai/ha,0
same,"Plant response rating: Nutsedge, Yellow",[10]; 31 g ai/ha,0
same,"Plant response rating: Nutsedge, Yellow",[10]; 62 g ai/ha,0
same,"Plant response rating: Nutsedge, Yellow",[10]; 125 g ai/ha,0
